The results in this text go back to patent publication US12331054B2, “Perk inhibiting imidazolopyrazine compounds” (HiberCell, Inc., priority 2019, dated 2025).

Test [1] has as its target Recombinant human EIF2AK3 (PERK) catalytic domain (amino acids 536-1116) (Homo sapiens (Human), UniProt Q9NZJ5). As to the kind of experiment: PERK In Vitro Activity Assay (isolated), TR-FRET kinase assay. The note with it: isolated PERK enzyme, 1.5 μM ATP, read-out: Biochemical IC50. In short, it runs like this:
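IC50 values come from 4-parameter logistic fits of TR-FRET ratios, read after 90 min with 2 nM terbium-labelled phospho-eIF2a antibody following an EDTA stop (10 mM final). The kinase reaction ran 45 min at room temperature, started by adding PERK catalytic domain to 100–200 nM GFP-eIF2a in HEPES pH 7.5 buffer with MgCl2, EGTA and Brij-35.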
On the technique in general: In TR-FRET formats the signal depends on donor and acceptor labels being close together.

Test [2] concerns eIF2α in HEK293-EGFP-eIF2α cells. As to the kind of experiment: PERK Cellular Assay (HEK293-EGFP-eIF2α cells, tunicamycin-induced ER stress, TR-FRET). The test is classed as cell-based. The note with it: tunicamycin 2 hours. Summed up: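 After 2 h tunicamycin ([…]) stress following 30 min compound pretreatment at 37 °C, lysed HEK293-EGFP-eIF2α cells were read by TR-FRET. IC50 derived by 4-parameter logistic fitting of percent inhibition, DMSO-normalized, from 10-point 3-fold dilutions.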

Chain of Recombinant human EIF2AK3 (PERK) catalytic domain (amino acids 536-1116) (Q9NZJ5 536-1116): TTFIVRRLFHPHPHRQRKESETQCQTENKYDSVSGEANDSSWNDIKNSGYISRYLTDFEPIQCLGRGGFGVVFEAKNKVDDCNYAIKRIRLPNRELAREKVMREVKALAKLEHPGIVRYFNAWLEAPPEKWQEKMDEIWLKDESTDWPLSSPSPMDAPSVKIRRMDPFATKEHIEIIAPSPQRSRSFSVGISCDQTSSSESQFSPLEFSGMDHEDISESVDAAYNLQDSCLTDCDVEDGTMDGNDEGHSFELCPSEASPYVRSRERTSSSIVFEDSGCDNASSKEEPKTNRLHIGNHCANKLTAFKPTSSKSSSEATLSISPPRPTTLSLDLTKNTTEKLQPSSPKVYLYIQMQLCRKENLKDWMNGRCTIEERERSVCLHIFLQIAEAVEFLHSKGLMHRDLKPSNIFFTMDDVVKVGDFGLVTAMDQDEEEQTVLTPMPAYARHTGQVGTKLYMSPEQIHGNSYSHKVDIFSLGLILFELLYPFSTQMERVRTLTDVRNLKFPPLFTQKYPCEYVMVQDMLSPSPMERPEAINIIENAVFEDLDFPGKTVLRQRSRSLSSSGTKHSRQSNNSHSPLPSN

What is called IC50 is the concentration that inhibits the measured activity by half. Take `[2H]C([2H])([2H])c1nc(-c2ccc(NC(=O)C(O)c3cccc(Cl)c3)c(F)c2F)c2c(N)ncc(Cl)n12` (stereo not drawn) [Example 145, N-[4-[8-amino-5-chloro-3-(trideuteriomethyl)imidazo[1,5-a]pyrazin-1-yl]-2,3-difluoro-phenyl]-2-(3-chlorophenyl)-2-hydroxy-acetamide]: the IC50 in test [1] and in test [2] was 0.001 to 0.025 µM each time.

For the molecule `Cc1cnc(N)c2c(-c3ccc(NC(=O)C(O)c4cccc(F)c4)cc3OC(F)(F)F)nc(C)n12` (stereo not drawn) [Example 127, N-(4-(8-amino-3,5-dimethyl-imidazo[1,5-a]pyrazin-1-yl)-3-(trifluoromethoxy)phenyl)-2-(3-fluorophenyl)-2-hydroxyacetamide], the IC50 fell in the range of 0.001 to 0.025 µM in test [1] and 0.101 to 0.25 µM in test [2].

Consider `[2H]C([2H])([2H])c1nc(-c2ccc(NC(=O)C(O)c3cccc(Cl)c3)cc2F)c2c(N)ncc(C(F)(F)F)n12` (stereo not drawn) [Example 82, N-[4-[8-amino-3-(trideuteriomethyl)-5-(trifluoromethyl)imidazo[1,5-a]pyrazin-1-yl]-3-fluoro-phenyl]-2-(3-chlorophenyl)-2-hydroxy-acetamide], for which the IC50 in test [1] and in test [2] was 0.001 to 0.025 µM each time.

For `[2H]C([2H])([2H])c1nc(-c2ccc(NC(=O)C(O)c3cc(F)cc(C(F)(F)F)c3)cc2F)c2c(N)ncc(C(F)(F)F)n12` (stereo not drawn) [Example 112, N-[4-[8-amino-3-(trideuteriomethyl)-5-(trifluoromethyl)imidazo[1,5-a]pyrazin-1-yl]-3-fluoro-phenyl]-2-[3-fluoro-5-(trifluoromethyl)phenyl]-2-hydroxy-acetamide], the concentration for half-maximal inhibition (IC50) in test [1] and in test [2] was 0.001 to 0.025 µM each time.

Turning to `Cc1cc(F)cc(C(O)C(=O)Nc2ccc(-c3nc(C)n4c(C)cnc(N)c34)c(C)c2)c1` (stereo not drawn) [Example 62, N-(4-(8-amino-3,5-dimethylimidazo [1,5-a]pyrazin-1-yl)-3-methyl-phenyl)-2-(3-fluoro-5-methylphenyl)-2-hydroxyacetamide], the IC50 in test [1] and in test [2] was 0.001 to 0.025 µM in each case.

Turning to `[2H]C([2H])([2H])c1nc(-c2ccc(NC(=O)C(O)c3cccc(C(F)(F)F)c3)cc2C)c2c(N)ncc(C)n12` (stereo not drawn) [Example 17, N-[4-[8-amino-5-methyl-3-(trideuteriomethyl)imidazo[1,5-a]pyrazin-1-yl]-3-methyl-phenyl]-2-hydroxy-2-[3-(trifluoromethyl)phenyl]acetamide], the values for the concentration for half-maximal inhibition (IC50) in test [1] and in test [2] were 0.001 to 0.025 µM and 0.101 to 0.25 µM, respectively.

On to `[2H]C([2H])([2H])c1nc(-c2ccc(NC(=O)C(O)c3cc(F)cc(C(F)(F)F)c3)cc2C)c2c(N)ncc(C(F)(F)F)n12` (stereo not drawn) [Example 60, N-[4-[8-amino-3-(trideuteriomethyl)-5-(trifluoromethyl)imidazo[1,5-a]pyrazin-1-yl]-3-methyl-phenyl]-2-[3-fluoro-5-(trifluoromethyl)phenyl]-2-hydroxy-acetamide], for which the results for the IC50 in test [1] and in test [2] were 0.001 to 0.025 µM and 0.026 to 0.05 µM, respectively.

`[2H]C([2H])([2H])c1nc(-c2cnc(NC(=O)C(O)c3cccc(F)c3)cc2C)c2c(N)ncc(C)n12` (stereo not drawn) [Example 181, N-[5-[8-amino-5-methyl-3-(trideuteriomethyl)imidazo[1,5-a]pyrazin-1-yl]-4-methyl-2-pyridyl]-2-(3-fluorophenyl)-2-hydroxy-acetamide]: the IC50 in test [1] was in the range of 0.001 to 0.025 µM; in test [2], 0.026 to 0.05 µM.

For the molecule `Cc1cc(NC(=O)C(O)c2cccc(F)c2)ccc1-c1nc(C)n2c(Cl)cnc(N)c12` (stereo not drawn) [Example 28, N-(4-(8-amino-5-chloro-3-methylimidazo[1,5-a]pyrazin-1-yl)-3-methylphenyl)-2-(3-fluorophenyl)-2-hydroxyacetamide], the IC50 in test [1] and in test [2] was 0.001 to 0.025 µM each time.
